# Results taken from US8722727B2, “Antifungal agents” (Seynix, Inc., priority 2008, dated 2014).
# Target: T1, glucan synthase (GS) (Candida albicans, UniProt O13428)
# T1 construct: Extraction of GS activity from membranes was performed at a protein concentration of 5 mg/mL in extraction buffer; endogenous in cells; host or cells: Candida albicans MY1055 (membrane fraction, detergent extraction, product entrapment)
# Assay: Glucan synthase inhibition (polymerization assay, 96-well)
# Assay type: biochemical
# Conditions: glucan synthase prepared from Candida albicans MY1055; 60 min incubation at 22° C.; read-out: Candida Albicans GS IC50 (ng/mL) (converted)
# Protocol: The in vitro evaluation of glucan synthase inhibitory activity of compounds was measured in a polymerization assay in 96-well format. Each well contained 100 μL of ^3H-UDPG at 0.5 mM (6000 to 8000 dpm/nmol), 50 mM HEPES pH 7.5 (Sigma), 10% w/v glycerol (Sigma), 1.5 mg/mL bovine serum albumin (Sigma A 9647. Lot 44H0190), 25 mM KF (Fisher), 1 mM EDTA (Gibco ULTRAPURE), 25 μM GTP-γ-S, enzyme sufficient to give 3 to 6 nmoles incorporation during the 60 min incubation at 22° C., and test compound added from wells in 3-fold serial dilutions in 100% DMSO (1 μL/well). The reaction was stopped by the addition of 100 μL of 20% trichloroacetic acid. Plates were chilled for a minimum of 10 min, and precipitated glucan collected by filtration on GF/C plates (Packard UNIFILTER®-96), washed with 5 cycles of water (about 1 mL/well each cycle) using a Packard FILTERMATE HARVESTER. 40 μL/well scintillation fluid (Packard ULTIMA GOLD TM-XR) was added and the sealed plates counted in a WALLAC BETA counter in top-counting mode at an efficiency of approximately 40%.
# Stock solutions were stored at 10 mg/mL in DMSO at −20° C. For each new enzyme preparation, the initial titration performed started at 1 mg/mL, which was prepared by making a 10-fold dilution in DMSO (5 μL to 50 μL). 40 μL of this stock was placed in column 12 of a round-bottomed 96-well microtiter plate. 40 μL DMSO was added to columns 1 to 11 in the same row and ten 3-fold serial dilutions performed, by transferring 20 μL from column 12 to column 11 etc., with 4 mixings before each transfer. No test compound was transferred to from column 2 to column 1. Duplicate aliquots of 1 μL of all 12 dilutions were then transferred to the side walls of a 96-well Bioblock 1.1 mL plate (Fisher brand) to create two rows. Graphs of the primary data were created in PRISM software (the average of two determinations) using PRISM's curve fitting program (sigmoidal dose response non-linear regression). The amount of compound required to inhibit glucan synthase activity by 50% in this assay (IC50-ng/mL) was calculated.
# Routine analysis was performed with glucan synthase (GS) prepared from Candida albicans MY1055 by the following procedure: MY1055 was grown in 10 liters YPD medium (10 g yeast extract, 20 g tryptone, 20 g glucose per liter) with vigorous shaking at 30° C., to early stationary phase. Cells were harvested by centrifugation, the pellet was washed and frozen at −70° C. until breakage. Thawed pellets were shaken with an equal volume of breakage buffer (50 mM HEPES pH 7.4, 10% glycerol, 1 mM EDTA, 1 mM PMSF, 1 mM DTT) and 4 times their weight of 0.5 mm acid washed glass beads for 2 hours at 4° C. Extent of breakage was assessed visually at 40× magnification. After low speed centrifugation to remove cell debris, the supernatant was centrifuged at 100,000×g for 60 min. to separate membranes plus ribosomes from cytoplasmic components. Membranes were further washed two additional times with breakage buffer using the same centrifugation conditions and finally suspended in breakage buffer at 25 to 30 mg/mL protein (Biorad) for storage at −70° C. Extraction of GS activity from membranes was performed at a protein concentration of 5 mg/mL in extraction buffer (50 mM NaPO4 pH 7.5, 0.1 M KCl, 0.1M Na citrate, 20% glycerol, 5 μM GTP-γ-S, 1 mM DTT, 1 mM PMSF, 3 μg/mL pepstatin) plus 0.25% W1 by gentle mixing at 4° C. for 60 min, followed by centrifugation at 100,000×g for 60 min. After centrifugation, clear supernatant was removed from a pellet consisting of a hard layer usually with small amounts of gelatinous unextracted membranes above it.
# Trapping was initiated immediately by 5-fold dilution in trapping buffer (50 mM HEPES pH 7.5, 10 mM KF, 1 mM EDTA, 2 mg/mL BSA) plus 2.5 mM UDPG and 10 μM GTP-γ-S. After incubation at 25° C. for 60 to 90 minutes, glucan was harvested by low speed centrifugation (3,000×g, 10 min). […]
# T1 sequence (O13428 1-1897): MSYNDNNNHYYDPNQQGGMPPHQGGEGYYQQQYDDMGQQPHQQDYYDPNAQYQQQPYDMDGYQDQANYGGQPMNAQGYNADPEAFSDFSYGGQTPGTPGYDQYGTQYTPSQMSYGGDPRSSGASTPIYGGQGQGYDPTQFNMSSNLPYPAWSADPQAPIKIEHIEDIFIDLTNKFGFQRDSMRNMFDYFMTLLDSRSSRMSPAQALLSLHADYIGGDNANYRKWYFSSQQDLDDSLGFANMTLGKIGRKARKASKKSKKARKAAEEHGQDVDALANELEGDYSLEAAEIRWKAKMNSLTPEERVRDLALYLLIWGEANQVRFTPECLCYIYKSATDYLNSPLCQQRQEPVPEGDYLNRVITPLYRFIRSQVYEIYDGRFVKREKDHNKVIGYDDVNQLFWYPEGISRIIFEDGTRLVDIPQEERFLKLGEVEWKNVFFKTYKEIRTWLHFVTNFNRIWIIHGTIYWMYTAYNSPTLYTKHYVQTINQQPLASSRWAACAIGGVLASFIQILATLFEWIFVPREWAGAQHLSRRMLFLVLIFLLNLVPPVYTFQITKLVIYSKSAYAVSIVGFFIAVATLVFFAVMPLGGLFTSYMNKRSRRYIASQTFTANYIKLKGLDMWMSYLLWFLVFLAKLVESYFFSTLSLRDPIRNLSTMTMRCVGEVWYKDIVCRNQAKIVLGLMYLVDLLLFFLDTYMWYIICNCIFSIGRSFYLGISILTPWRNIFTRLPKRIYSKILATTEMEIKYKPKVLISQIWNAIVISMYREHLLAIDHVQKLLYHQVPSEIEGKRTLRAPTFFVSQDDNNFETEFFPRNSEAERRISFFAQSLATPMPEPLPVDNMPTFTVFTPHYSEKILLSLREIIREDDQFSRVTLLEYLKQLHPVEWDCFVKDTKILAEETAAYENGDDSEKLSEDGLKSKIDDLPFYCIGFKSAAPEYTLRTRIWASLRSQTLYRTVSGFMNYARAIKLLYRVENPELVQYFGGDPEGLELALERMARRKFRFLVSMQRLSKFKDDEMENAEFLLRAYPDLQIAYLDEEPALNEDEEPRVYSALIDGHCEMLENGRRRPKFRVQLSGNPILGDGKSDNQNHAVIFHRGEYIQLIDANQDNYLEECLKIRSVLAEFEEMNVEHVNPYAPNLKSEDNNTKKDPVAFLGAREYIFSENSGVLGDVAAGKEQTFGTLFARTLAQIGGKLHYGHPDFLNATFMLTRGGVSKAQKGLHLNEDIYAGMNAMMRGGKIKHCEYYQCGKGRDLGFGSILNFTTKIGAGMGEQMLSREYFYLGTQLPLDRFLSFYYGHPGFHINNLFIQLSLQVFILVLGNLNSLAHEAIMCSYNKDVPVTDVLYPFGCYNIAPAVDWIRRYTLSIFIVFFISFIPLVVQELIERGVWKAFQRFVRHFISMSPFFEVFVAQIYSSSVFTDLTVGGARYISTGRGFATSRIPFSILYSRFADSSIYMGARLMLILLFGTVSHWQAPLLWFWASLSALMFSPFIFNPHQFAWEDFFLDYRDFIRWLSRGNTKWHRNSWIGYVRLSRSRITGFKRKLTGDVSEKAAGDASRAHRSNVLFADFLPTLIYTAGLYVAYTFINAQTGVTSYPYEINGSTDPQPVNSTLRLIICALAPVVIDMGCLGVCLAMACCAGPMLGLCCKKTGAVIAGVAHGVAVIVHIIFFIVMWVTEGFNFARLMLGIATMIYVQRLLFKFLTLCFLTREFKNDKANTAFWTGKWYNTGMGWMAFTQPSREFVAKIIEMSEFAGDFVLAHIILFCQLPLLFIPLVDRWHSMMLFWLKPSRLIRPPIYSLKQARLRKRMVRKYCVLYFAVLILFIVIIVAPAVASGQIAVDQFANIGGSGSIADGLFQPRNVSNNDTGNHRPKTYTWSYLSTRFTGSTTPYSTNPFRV
# T1 sequence (O42825 1-195 partner limits assumed): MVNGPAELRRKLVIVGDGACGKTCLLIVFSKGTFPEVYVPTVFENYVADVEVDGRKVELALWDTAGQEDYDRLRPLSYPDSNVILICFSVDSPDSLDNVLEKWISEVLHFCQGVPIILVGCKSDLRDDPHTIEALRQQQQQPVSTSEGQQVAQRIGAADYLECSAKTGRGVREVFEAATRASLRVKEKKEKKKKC
row,IC50 [nM],SMILES
1,64.6,"CC(C)[C@@H](C)[C@@]1(C)CC[C@]2(C)[C@H]3CC[C@@H]4[C@@]5(COC[C@@]4(C)[C@@H](OC[C@](C)(C(C)C)N(C)C)[C@H](n4nnc(N)n4)C5)C3=CC(=O)[C@@]2(C)[C@@H]1C(=O)O (single isomer, unassigned) [Example 15A]"
2,21.4,"CC(C)[C@@H](C)[C@@]1(C)CC[C@]2(C)[C@H]3CC[C@@H]4C5(COCC4(C)[C@@H](OCC4CCCN4C)[C@H](n4nnc(N)n4)C5)C3=CC[C@@]2(C)[C@@H]1C(=O)O (stereo in doubt) [Example 46, (1S,4aR,6aS,7R,8R,10aR,10bR,12aR,14R,15R)-14-(5-amino-2H-tetrazol-2-yl)-8-[(1R)-1,2-dimethylpropyl]-15-[(1-methyl-2-pyrrolidinyl)methoxy]-1,6,6a,7,8,9,10,10a,10b,11,12,12a-dodecahydro-1,6a,8,10a-tetramethyl-4H-1,4a-propano-2H-phenanthro[1,2-c]pyran-7-carboxylic acid]"
3,9.81,"CC(C)[C@@H](C)[C@@]1(C)CC[C@]2(C)[C@H]3CC[C@@H]4[C@@]5(COC[C@@]4(C)[C@@H](OCC(C)(C)N)[C@H](n4ncnn4)C5)C3=CC[C@@]2(C)[C@@H]1C(=O)O [Example 1B, (1S,4aR,6aS,7R,8R,10aR,10bR,12aR,14R,15R)-15-(2-amino-2-methylpropoxy)-8-[(1R)-1,2-dimethylpropyl]-14-(2H-tetrazol-2-yl)-1,6,6a,7,8,9,10,10a,10b,11,12,12a-dodecahydro-1,6a,8,10a-tetramethyl-4H-1,4a-propano-2H-phenanthro[1,2-c]pyran-7-carboxylic acid]"
4,4.79,"CC(C)[C@@H](C)[C@@]1(C)CC[C@]2(C)[C@H]3CC[C@@H]4[C@@]5(COC[C@@]4(C)[C@@H](OCC(C)(C)N)[C@H](n4nnc(N)n4)C5)C3=CC[C@@]2(C)[C@@H]1C(=O)O [Example 6, (1S,4aR,6aS,7R,8R,10aR,10bR,12aR,14R,15R)-15-(2-amino-2-methylpropoxy)-14-(5-amino-2H-tetrazol-2-yl)-8-[(1R)-1,2-dimethylpropyl]-1,6,6a,7,8,9,10,10a,10b,11,12,12a-dodecahydro-1,6a,8,10a-tetramethyl-4H-1,4a-propano-2H-phenanthro[1,2-c]pyran-7-carboxylic acid]"
5,13.2,"CC(C)[C@@H](C)[C@@]1(C)CC[C@]2(C)[C@H]3CC[C@@H]4[C@@]5(COC[C@@]4(C)[C@@H](OC[C@@](C)(C(C)C)N(C)C)[C@H](n4nnc(N)n4)C5)C3=CC[C@@]2(C)[C@@H]1C(=O)O [Example 8, (1S,4aR,6aS,7R,8R,10aR,10bR,12aR,14R,15R)-14-(5-amino-2H-tetrazol-2-yl)-15-[[(2R)-2-(dimethylamino)-2,3-dimethylbutyl]oxy]-8-[(1R)-1,2-dimethylpropyl]-1,6,6a,7,8,9,10,10a,10b,11,12,12a-dodecahydro-1,6a,8,10a-tetramethyl-4H-1,4 a-propano-2H-phenanthro[1,2-c]pyran-7-carboxylic acid]"
6,56.5,"CC(C)[C@@H](C)[C@@]1(C)CC[C@]2(C)[C@H]3CC[C@@H]4[C@@]5(COC[C@@]4(C)[C@@H](OC[C@](C)(N)C(C)C)[C@H](n4nnnc4N)C5)C3=CC[C@@]2(C)[C@@H]1C(=O)O [Example 9, (1S,4aR,6aS,7R,8R,10aR,10bR,12aR,14R,15R)-15-[[(2R)-2-amino-2,3-dimethylbutyl]oxy]-14-(5-amino-1H-tetrazol-1-yl)-8-[(1R)-1,2-dimethylpropyl]-1,6,6a,7,8,9,10,10a,10b,11,12,12a-dodecahydro-1,6a,8,10a-tetramethyl-4H-1,4a-propano-2H-phenanthro[1,2-c]pyran-7-carboxylic acid]"
7,78.8,"CC(C)[C@@H](C)[C@@]1(C)CC[C@]2(C)[C@H]3CC[C@@H]4[C@@]5(COC[C@@]4(C)[C@@H](OC[C@](C)(C(C)C)N4CCCCC4)[C@H](n4nnc(N)n4)C5)C3=CC[C@@]2(C)[C@@H]1C(=O)O [Example 11, (1S,4aR,6aS,7R,8R,10aR,10bR,12aR,14R,15R)-14-(5-amino-2H-tetrazol-2-yl)-15-[[(2S)-2,3-dimethyl-2-(1-piperidinyl)butyl]oxy]-8-[(1R)-1,2-dimethylpropyl]-1,6,6a,7,8,9,10,10a,10b,11,12,12a-dodecahydro-1,6a,8,10a-tetramethyl-4H-1,4a-propano-2H-phenanthro[1,2-c]pyran-7-carboxylic acid]"
8,2.8,"CC(C)[C@@H](C)[C@@]1(C)CC[C@]2(C)[C@H]3CC[C@@H]4[C@@]5(COC[C@@]4(C)[C@@H](OC[C@](C)(NCCCO)C(C)C)[C@H](n4nnc(N)n4)C5)C3=CC[C@@]2(C)[C@@H]1C(=O)O [Example 13, (1S,4aR,6aS,7R,8R,10aR,10bR,12aR,14R,15R)-14-(5-amino-2H-tetrazol-2-yl)-8-[(1R)-1,2-dimethylpropyl]-15-[[(2R)-2-[(3-hydroxypropyl)amino]-2,3-dimethylbutyl]oxy]-1,6,6a,7,8,9,10,10a,10b,11,12,12a-dodecahydro-1,6a,8,10a-tetramethyl-4H-1,4a-propano-2H-phenanthro[1,2-c]pyran-7-carboxylic acid]"
9,4.3,"CCN[C@@](C)(CO[C@H]1[C@H](n2nnc(N)n2)C[C@@]23COC[C@]1(C)[C@@H]2CC[C@H]1C3=CC[C@@]2(C)[C@H](C(=O)O)[C@@](C)([C@H](C)C(C)C)CC[C@]12C)C(C)(C)C [Example 20, (1S,4aR,6aS,7R,8R,10aR,10bR,12aR,14R,15R)-14-(5-amino-2H-tetrazol-2-yl)-8-[(1R)-1,2-dimethylpropyl]-15-[[(2R)-2-(ethylamino)-2,3,3-trimethylbutyl]oxy]-1,6,6a,7,8,9,10,10a,10b,11,12,12a-dodecahydro-1,6a,8,10a-tetramethyl-4H-1,4a-propano-2H-phenanthro[1,2-c]pyran-7-carboxylic acid]"

row,SMILES,IC50 [nM]
1,"CC(C)[C@@H](C)[C@@]1(C)CC[C@]2(C)[C@H]3CC[C@@H]4[C@@]5(COC[C@@]4(C)[C@@H](OCC(C)(N)C(C)C)[C@H](n4cnnn4)C5)C3=CC[C@@]2(C)[C@@H]1C(=O)O (stereo partly drawn) [Example 2A, (1S,4aR,6aS,7R,8R,10aR,10bR,12aR,14R,15R)-15-(2-amino-2,3-dimethylbutoxy)-8-[(1R)-1,2-dimethylpropyl]-14-(1H-tetrazol-1-yl)-1,6,6a,7,8,9,10,10a,10b,11,12,12a-dodecahydro-1,6a,8,10a-tetramethyl-4H-1,4a-propano-2H-phenanthro[1,2-c]pyran-7-carboxylic acid]",82.8
2,"CC(C)[C@@H](C)[C@@]1(C)CC[C@]2(C)[C@H]3CC[C@@H]4[C@@]5(COC[C@@]4(C)[C@@H](OCC(C)(C(C)C)N(C)C)[C@H](n4ncnn4)C5)C3=CC(=O)[C@@]2(C)[C@@H]1C(=O)O (stereo partly drawn) [Example 4B, (1S,4aR,6aS,7R,8R,10aR,10bR,12aR,14R,15R)-15-[2-(dimethylamino)-2,3-dimethylbutoxy]-8-[(1R)-1,2-dimethylpropyl]-14-(2H-tetrazol-2-yl)-1,6,6a,7,8,9,10,10a,10b,11,12,12a-dodecahydro-1,6a,8,10a-tetramethyl-6-oxo-4H-1,4a-propano-2H-phenanthro[1,2-c]pyran-7-carboxylic acid]",63.1
